# Results from patent US8536354B2, “Steroidal ligands and their use in gene switch modulation” (Intrexon Corporation, priority 2008, dated 2013).
# Where “and” joins values, the source holds several entries; their conditions need not be identical. Identical values can stand only once. Like-named read-outs stand apart in the source and are kept apart here.
# What was measured:
# [1] = Log D measurement (shake flask, pH 7.4 buffer / octanol); assay type: physicochemical; details: octanol/pH 7.4 buffer (shake flask), pH 7.4 buffer / water-saturated octanol, read-out: Experimental logD
# Procedure: (§1) Each shake flask was agitated for 60 minutes at room temperature, then allowed to stand for 1 hour at room temperature. […] Absorbance was compared to that of a reference standard at the same absorbance maximum for a 1-2% solution of the same steroid in CH3OH, allowing for up to 10 nM maxima shift due to solvent effect.
# [2] = Caco II permeability assay; details: human, Caco-2, pH 7.4
# [3] = in human; cited from earlier work
# [4] = Plasma protein binding assay (dialysis); assay type: in vitro ADME; details: both sexes; human plasma vs PBS pH 7.4, ca. 24 hours at 37° C.
# [5] = target: T1, wild-type Choristoneura fumiferana EcR (CfEcR-DEF) (Choristoneura fumiferana, UniProt O77255); test: Two-hybrid gene switch assay, wild-type CfEcR-DEF (GAL4-EcR / VP16-RXR-USP chimera, luciferase) in NIH3T3 cells
# T1 sequence (O77255 219-541): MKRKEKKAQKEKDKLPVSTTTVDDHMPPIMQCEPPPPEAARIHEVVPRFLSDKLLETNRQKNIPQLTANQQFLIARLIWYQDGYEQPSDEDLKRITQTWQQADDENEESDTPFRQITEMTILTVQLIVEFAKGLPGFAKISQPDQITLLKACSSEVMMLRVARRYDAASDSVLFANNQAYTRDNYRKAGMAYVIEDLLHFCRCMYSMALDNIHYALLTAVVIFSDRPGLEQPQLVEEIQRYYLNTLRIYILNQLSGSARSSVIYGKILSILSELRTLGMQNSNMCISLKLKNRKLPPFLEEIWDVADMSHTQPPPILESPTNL
# T1 sequence (P28702 299-449 partner): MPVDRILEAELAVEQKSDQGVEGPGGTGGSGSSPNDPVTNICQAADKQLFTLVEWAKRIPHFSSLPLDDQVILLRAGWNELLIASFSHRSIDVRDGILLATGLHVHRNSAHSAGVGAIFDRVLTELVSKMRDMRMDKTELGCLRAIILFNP
# physchem = details: 25 °C, water, thermodynamic from solid
# Procedure: as §1
# [6] = tested on: D. melanogaster BII cell line (expresses the ecdysteroid receptor complex EcR-USP); test: Drosophila melanogaster BII cell line bioassay (turbidometric; agonist and antagonist versions); details: Drosophila melanogaster, read-out: EC50 (M), BII bioassay results
# VgEcR/RXR = VgEcR/RXR (Drosophila melanogaster, UniProt P34021, E282G/G283S/G286V)
# Chain of VgEcR/RXR (P34021 whole entry E282G/G283S/G286V): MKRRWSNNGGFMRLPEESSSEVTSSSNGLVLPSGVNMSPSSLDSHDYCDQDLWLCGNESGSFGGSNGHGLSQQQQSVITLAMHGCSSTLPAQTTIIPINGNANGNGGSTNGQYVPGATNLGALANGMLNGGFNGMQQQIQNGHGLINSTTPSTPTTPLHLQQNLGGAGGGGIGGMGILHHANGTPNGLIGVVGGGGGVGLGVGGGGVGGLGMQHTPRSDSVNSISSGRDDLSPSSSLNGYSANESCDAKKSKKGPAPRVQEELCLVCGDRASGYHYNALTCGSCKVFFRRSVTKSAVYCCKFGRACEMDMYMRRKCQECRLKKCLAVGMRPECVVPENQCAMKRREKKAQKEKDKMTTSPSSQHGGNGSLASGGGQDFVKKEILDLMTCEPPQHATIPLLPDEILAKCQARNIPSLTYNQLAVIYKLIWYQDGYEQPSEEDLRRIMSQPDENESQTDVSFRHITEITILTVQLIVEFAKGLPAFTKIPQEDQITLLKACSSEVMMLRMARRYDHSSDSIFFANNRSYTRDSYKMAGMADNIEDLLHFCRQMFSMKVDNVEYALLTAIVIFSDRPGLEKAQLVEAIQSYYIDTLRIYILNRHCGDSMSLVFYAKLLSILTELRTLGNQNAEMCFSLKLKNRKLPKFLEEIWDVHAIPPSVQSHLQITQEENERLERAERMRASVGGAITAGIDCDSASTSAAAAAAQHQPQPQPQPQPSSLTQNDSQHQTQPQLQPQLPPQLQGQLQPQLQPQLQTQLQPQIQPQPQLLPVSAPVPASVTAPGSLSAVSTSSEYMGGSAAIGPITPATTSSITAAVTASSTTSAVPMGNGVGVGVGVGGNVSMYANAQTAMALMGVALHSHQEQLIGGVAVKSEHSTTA
# Chain of VgEcR/RXR (P19793 whole entry, further chain): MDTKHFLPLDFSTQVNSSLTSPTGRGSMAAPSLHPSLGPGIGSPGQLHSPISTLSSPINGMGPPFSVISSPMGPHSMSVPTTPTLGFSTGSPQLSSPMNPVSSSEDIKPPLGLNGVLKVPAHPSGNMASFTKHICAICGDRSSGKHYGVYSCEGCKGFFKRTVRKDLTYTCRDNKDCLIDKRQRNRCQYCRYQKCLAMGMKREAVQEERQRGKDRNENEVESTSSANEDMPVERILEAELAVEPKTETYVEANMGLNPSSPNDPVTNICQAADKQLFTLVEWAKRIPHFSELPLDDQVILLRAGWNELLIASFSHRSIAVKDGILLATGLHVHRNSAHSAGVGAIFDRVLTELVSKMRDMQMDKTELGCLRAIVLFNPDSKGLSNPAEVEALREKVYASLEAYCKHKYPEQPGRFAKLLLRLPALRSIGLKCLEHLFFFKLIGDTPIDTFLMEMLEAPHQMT
# [7] = target: T2, wild-type Drosophila melanogaster EcR (DmEcR-DEF) (Drosophila melanogaster, UniProt P34021); test: Two-hybrid gene switch assay, DmEcR-DEF in NIH3T3 cells; details: EC50, DmEcR gene switch, NIH3T3, Example One
# T2 sequence (P34021 342-878 limits assumed): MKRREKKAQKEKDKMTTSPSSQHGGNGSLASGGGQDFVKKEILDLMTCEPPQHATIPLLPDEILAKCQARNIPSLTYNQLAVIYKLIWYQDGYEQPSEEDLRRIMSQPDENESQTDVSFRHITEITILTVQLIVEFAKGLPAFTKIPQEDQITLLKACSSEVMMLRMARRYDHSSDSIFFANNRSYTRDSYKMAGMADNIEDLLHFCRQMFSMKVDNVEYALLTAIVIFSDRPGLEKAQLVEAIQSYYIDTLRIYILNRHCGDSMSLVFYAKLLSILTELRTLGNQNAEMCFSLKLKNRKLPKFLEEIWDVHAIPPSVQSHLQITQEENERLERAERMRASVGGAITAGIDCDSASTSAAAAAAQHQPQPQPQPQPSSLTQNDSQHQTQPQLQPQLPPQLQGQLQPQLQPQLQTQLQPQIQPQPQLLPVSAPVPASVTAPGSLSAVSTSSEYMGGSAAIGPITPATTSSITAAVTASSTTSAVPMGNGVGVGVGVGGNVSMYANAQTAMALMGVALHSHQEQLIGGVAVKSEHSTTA
# [8] = Water solubility measurement (saturated solutions, 25° C., UV absorbance); details: 25 °C, thermodynamic from solid
# Procedure: as §1
# [9] = tested on: Nephotettix cincticeps EcR (NcEcR-DEF); test: Two-hybrid gene switch assay, NcEcR-DEF in NIH3T3 cells; details: Example Two
# [10] = tested on: EcRs (lepidopteran and non-lepidopteran); test: Two-hybrid gene switch assays, statements across the set of ten EcRs in NIH3T3 cells
# Bombyx mori EcR (BmEcR) = target: T3, Bombyx mori EcR (BmEcR) (Bombyx mori, UniProt P49881); test: Two-hybrid gene switch assay, BmEcR in NIH3T3 cells
# T3 sequence (P49881 352-589 limits assumed): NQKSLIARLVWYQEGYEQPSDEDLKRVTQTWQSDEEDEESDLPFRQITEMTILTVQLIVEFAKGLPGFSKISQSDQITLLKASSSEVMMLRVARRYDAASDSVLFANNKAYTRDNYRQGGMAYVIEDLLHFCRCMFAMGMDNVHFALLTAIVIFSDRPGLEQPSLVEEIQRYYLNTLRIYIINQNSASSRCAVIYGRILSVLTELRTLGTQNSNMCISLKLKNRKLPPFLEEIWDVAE
# [11] = target: T4, wild-type Aedes aegypti EcR (AaEcR-DEF) (Aedes aegypti, UniProt P49880); test: Two-hybrid gene switch assay, AaEcR-DEF in NIH3T3 cells
# T4 sequence (P49880 405-776 limits assumed): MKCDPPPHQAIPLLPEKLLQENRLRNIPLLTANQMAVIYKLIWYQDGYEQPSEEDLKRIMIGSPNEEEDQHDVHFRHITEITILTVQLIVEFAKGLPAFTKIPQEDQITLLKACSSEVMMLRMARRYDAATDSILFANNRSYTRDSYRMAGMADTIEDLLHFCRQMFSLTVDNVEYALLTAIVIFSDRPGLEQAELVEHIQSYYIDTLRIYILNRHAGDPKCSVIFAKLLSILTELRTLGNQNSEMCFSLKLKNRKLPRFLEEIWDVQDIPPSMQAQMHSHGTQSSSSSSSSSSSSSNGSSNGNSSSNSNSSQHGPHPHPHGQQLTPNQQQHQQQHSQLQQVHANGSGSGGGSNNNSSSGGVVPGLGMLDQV
structure (smiles),measurement,setting,value
"CC(C)(O)CCC(O)C(C)(O)C1CCC2(O)C3=CC(=O)C4CC(O)C(O)CC4(C)C3CCC12C (centres unmarked) [20E, 20-hydroxyecdysone]",logD,[1],0.01
same,Papp A→B at 120 min,[2],0.11 ×10⁻⁶ cm/s
same,Papp B→A at 120 min,[2],0.39 ×10⁻⁶ cm/s
same,efflux ratio at 120 min,[2],3.5
same,estimated half-life,[3],9 h
same,fraction unbound,[4],0.908
same,EC50,[5],> 33000 nM
same,activity in wt-CfEcR assay,[5]; Example One,essentially inactive
same,response toward CfEcR,[5]; Example Two,virtually no response
same,solubility,physchem,6700 µg/mL
same,EC50,[6],7.6e-09 M
"CC(C)CC[C@@H](O)[C@](C)(O)[C@H]1CC[C@@]2(O)C3=CC(=O)[C@@H]4C[C@@H](O)[C@@H](O)C[C@]4(C)[C@H]3CC[C@]12C [PoA, ponasterone A]",EC50,"VgEcR/RXR; EC50, VgEcR/RXR switch in 3T3 cells",641 nM
same,EC50,"VgEcR/RXR; EC50, VgEcR/RXR system",641 nM
same,RMFI,VgEcR/RXR; VgEcR/RXR system,1.5
same,EC50,[7],~66 nM
same,solubility,[8],180 µg/mL
same,EC50,[9],0.3 nM
same,RMFI,[9],1
same,logD,[1],1.95
same,Papp A→B at 120 min,[2],2.26 ×10⁻⁶ cm/s
same,Papp B→A at 120 min,[2],13.9 ×10⁻⁶ cm/s
same,efflux ratio at 120 min,[2],6.2
same,activity across the tested set of EcRs,[10]; FIGS. 13 and 14,active
same,potency,[10]; all EcRs tested,submicromolar potency
same,EC50,"[10]; read-out: potency (EC50), Nc, Aa, and Ama EcRs",0.3 to 2 nM
same,fraction unbound,[4],0.426
same,EC50,[5],190 nM
same,"RMFI (relative maximum fold induction, relative to diacylhydrazine 30)","[5]; wt-CfEcR gene switch, NIH3T3, Example One",~0.18 and ~0.2
same,EC50,Bombyx mori EcR (BmEcR),110 nM
same,RMFI,"Bombyx mori EcR (BmEcR); BmEcR, Example Two",0.98
same,EC50,"[11]; EC50, AaEcR gene switch, NIH3T3, Example One",1.1 nM
same,potency as activator of AaEcR,[11]; Example Two,single digit nM
same,fold induction at 1 µM,"[11]; NIH3T3, read-out: FI (fold induction)",166
same,RLUs (absolute expression of the reporter gene),[11]; [AaEcR],~1046
same,EC50,[6],2.6e-10 M
